“And” between values parts separate entries of the source, which are not always exact repeats. Equal values may be shown once.
Assay: Residual 14C-gentian violet in tissues of cockerels after repeated oral administration (Example 26)
Details: for 14C dpm/Organ / 14C dpm/gram / ug/gram (ppm) in organ: individual bird; for Mean tissue residue: oral; for Mean tissue residue, mean of two values without the sport: 2.5 mg/kg

CN(C)c1ccc(C(=C2C=CC(=[N+](C)C)C=C2)c2ccc(N(C)C)cc2)cc1 [^14 C-gentian violet]
Residue 72 hrs. post-dose (breast muscle): 0.012 ppm
Residue 72 hrs. post-dose (gizzard muscle): 0.002 ppm
Residue 72 hrs. post-dose (heart muscle): 0.007 ppm
14C dpm/Organ (kidneys, 1X dose, 4 hours): 2,863 dpm/Organ and 4,271 dpm/Organ and 2,272 dpm/Organ
14C dpm/gram (kidneys, 1X dose, 4 hours): 1,184 dpm/gram and 1,634 dpm/gram and 1,269 dpm/gram
ug/gram (ppm) in organ (kidneys, 1X dose, 4 hours, 240 min): 0.089 ppm and 0.123 ppm and 0.095 ppm
14C dpm/Organ (kidneys, 1X dose, 12 hours): 1,746 dpm/Organ and 1,696 dpm/Organ and 3,452 dpm/Organ
14C dpm/gram (kidneys, 1X dose, 12 hours): 820 dpm/gram and 764 dpm/gram and 1,561 dpm/gram
ug/gram (ppm) in organ (kidneys, 1X dose, 12 hours, 720 min): 0.062 ppm and 0.057 ppm and 0.117 ppm
14C dpm/Organ (kidneys, 1X dose, 24 hours): 2,705 dpm/Organ and 1,481 dpm/Organ and 1,644 dpm/Organ
14C dpm/gram (kidneys, 1X dose, 24 hours): 1,463 dpm/gram and 639 dpm/gram and 561 dpm/gram
ug/gram (ppm) in organ (kidneys, 1X dose, 24 hours, 1440 min): 0.110 ppm and 0.048 ppm and 0.042 ppm
14C dpm/Organ (kidneys, 1X dose, 48 hours): 1,186 dpm/Organ and 863 dpm/Organ
14C dpm/gram (kidneys, 1X dose, 48 hours): 511 dpm/gram and 527 dpm/gram
ug/gram (ppm) in organ (kidneys, 1X dose, 48 hours, 2880 min): 0.038 ppm and 0.040 ppm
14C dpm/Organ (kidneys, 1X dose, 72 hours): 972 dpm/Organ and 759 dpm/Organ
14C dpm/gram (kidneys, 1X dose, 72 hours): 333 dpm/gram and 289 dpm/gram
ug/gram (ppm) in organ (kidneys, 1X dose, 72 hours, 4320 min): 0.025 ppm and 0.022 ppm
14C dpm/Organ (kidneys, 5X dose, 4 hours): 11,116 dpm/Organ and 9,227 dpm/Organ and 8.867 dpm/Organ and 12,505 dpm/Organ
14C dpm/gram (kidneys, 5X dose, 4 hours): 9,183 dpm/gram and 4,798 dpm/gram and 4,729 dpm/gram and 6,658 dpm/gram
ug/gram (ppm) in organ (kidneys, 5X dose, 4 hours, 240 min): 0.691 ppm and 0.361 ppm and 0.356 ppm and 0.501 ppm
14C dpm/Organ (kidneys, 5X dose, 12 hours): 11,939 dpm/Organ and 6,796 dpm/Organ and 6,537 dpm/Organ and 5,712 dpm/Organ and 7,815 dpm/Organ
14C dpm/gram (kidneys, 5X dose, 12 hours): 5,250 dpm/gram and 3,258 dpm/gram and 3,060 dpm/gram and 2,334 dpm/gram and 3,855 dpm/gram
ug/gram (ppm) in organ (kidneys, 5X dose, 12 hours, 720 min): 0.395 ppm and 0.245 ppm and 0.230 ppm and 0.176 ppm and 0.290 ppm
14C dpm/Organ (kidneys, 5X dose, 24 hours): 6,185 dpm/Organ and 6,443 dpm/Organ and 7,315 dpm/Organ and 3,623 dpm/Organ
14C dpm/gram (kidneys, 5X dose, 24 hours): 3,002 dpm/gram and 2,961 dpm/gram and 3,751 dpm/gram and 1,463 dpm/gram
ug/gram (ppm) in organ (kidneys, 5X dose, 24 hours, 1440 min): 0.226 ppm and 0.223 ppm and 0.282 ppm and 0.110 ppm
14C dpm/Organ (kidneys, 5X dose, 48 hours): 2,197 dpm/Organ and 3,750 dpm/Organ and 2,882 dpm/Organ
14C dpm/gram (kidneys, 5X dose, 48 hours): 982 dpm/gram and 1,647 dpm/gram and 1,508 dpm/gram
ug/gram (ppm) in organ (kidneys, 5X dose, 48 hours, 2880 min): 0.074 ppm and 0.124 ppm and 0.113 ppm
14C dpm/Organ (kidneys, 5X dose, 72 hours): 4,998 dpm/Organ and 1,843 dpm/Organ and 1,792 dpm/Organ
14C dpm/gram (kidneys, 5X dose, 72 hours): 4,044 dpm/gram and 844 dpm/gram and 1,042 dpm/gram
ug/gram (ppm) in organ (kidneys, 5X dose, 72 hours, 4320 min): 0.304 ppm and 0.067 ppm and 0.078 ppm
14C dpm/Organ (liver, 1X dose, 4 hours): 21,804 dpm/Organ and 36,280 dpm/Organ and 16,323 dpm/Organ
14C dpm/gram (liver, 1X dose, 4 hours): 3,084 dpm/gram and 5,753 dpm/gram and 2,493 dpm/gram
ug/gram (ppm) in organ (liver, 1X dose, 4 hours, 240 min): 0.232 ppm and 0.433 ppm and 0.188 ppm
14C dpm/Organ (liver, 1X dose, 12 hours): 5,477 dpm/Organ and 5,889 dpm/Organ and 19,188 dpm/Organ
14C dpm/gram (liver, 1X dose, 12 hours): 996 dpm/gram and 927 dpm/gram and 2,857 dpm/gram
ug/gram (ppm) in organ (liver, 1X dose, 12 hours, 720 min): 0.075 ppm and 0.070 ppm and 0.215 ppm
14C dpm/Organ (liver, 1X dose, 24 hours): 14,586 dpm/Organ and 5,165 dpm/Organ and 7,248 dpm/Organ
14C dpm/gram (liver, 1X dose, 24 hours): 2,890 dpm/gram and 830 dpm/gram and 851 dpm/gram
ug/gram (ppm) in organ (liver, 1X dose, 24 hours, 1440 min): 0.217 ppm and 0.062 ppm and 0.064 ppm
14C dpm/Organ (liver, 1X dose, 48 hours): 8,396 dpm/Organ and 6,073 dpm/Organ
14C dpm/gram (liver, 1X dose, 48 hours): 1,419 dpm/gram and 1,292 dpm/gram
ug/gram (ppm) in organ (liver, 1X dose, 48 hours, 2880 min): 0.107 ppm and 0.097 ppm
14C dpm/Organ (liver, 1X dose, 72 hours): 7,261 dpm/Organ and 3,744 dpm/Organ
14C dpm/gram (liver, 1X dose, 72 hours): 546 dpm/gram and 361 dpm/gram
ug/gram (ppm) in organ (liver, 1X dose, 72 hours, 4320 min): 0.041 ppm and 0.027 ppm
14C dpm/Organ (liver, 5X dose, 4 hours): 44,618 dpm/Organ and 50,607 dpm/Organ and 42,844 dpm/Organ and 46,652 dpm/Organ
14C dpm/gram (liver, 5X dose, 4 hours): 13,878 dpm/gram and 9,859 dpm/gram and 8,038 dpm/gram and 9,651 dpm/gram
ug/gram (ppm) in organ (liver, 5X dose, 4 hours, 240 min): 1.044 ppm and 0.742 ppm and 0.605 ppm and 0.726 ppm
14C dpm/Organ (liver, 5X dose, 12 hours): 66,438 dpm/Organ and 24,948 dpm/Organ and 17,753 dpm/Organ and 26,299 dpm/Organ and 68,033 dpm/Organ
14C dpm/gram (liver, 5X dose, 12 hours): 11,801 dpm/gram and 4,135 dpm/gram and 3,201 dpm/gram and 3,772 dpm/gram and 10,291 dpm/gram
ug/gram (ppm) in organ (liver, 5X dose, 12 hours, 720 min): 0.888 ppm and 0.311 ppm and 0.241 ppm and 0.284 ppm and 0.774 ppm
14C dpm/Organ (liver, 5X dose, 24 hours): 60,300 dpm/Organ and 67,384 dpm/Organ and 68,033 dpm/Organ and 20,674 dpm/Organ
14C dpm/gram (liver, 5X dose, 24 hours): 9.588 dpm/gram and 10,942 dpm/gram and 12,714 dpm/gram and 2,845 dpm/gram
ug/gram (ppm) in organ (liver, 5X dose, 24 hours, 1440 min): 0.721 ppm and 0.823 ppm and 0.957 ppm and 0.215 ppm
14C dpm/Organ (liver, 5X dose, 48 hours): 15,334 dpm/Organ and 27,176 dpm/Organ and 13,617 dpm/Organ
14C dpm/gram (liver, 5X dose, 48 hours): 2,649 dpm/gram and 5,220 dpm/gram and 3,102 dpm/gram
ug/gram (ppm) in organ (liver, 5X dose, 48 hours, 2880 min): 0.199 ppm and 0.393 ppm and 0.233 ppm
14C dpm/Organ (liver, 5X dose, 72 hours): 45,587 dpm/Organ and 10,991 dpm/Organ and 13,245 dpm/Organ
14C dpm/gram (liver, 5X dose, 72 hours): 21,927 dpm/gram and 2,447 dpm/gram and 2,991 dpm/gram
ug/gram (ppm) in organ (liver, 5X dose, 72 hours, 4320 min): 1.650 ppm and 0.184 ppm and 0.225 ppm
Residue 72 hrs. post-dose (kidney): 0.024 ppm
Elimination Rate Constant (Ke) (kidneys, 1X dose): -0.0209 h⁻¹
Mean tissue residue (kidneys, 1X dose (0.5 mg/kg), 4 hrs. post-dose): 0.102 ppm
Mean tissue residue (kidneys, 1X dose (0.5 mg/kg), 12 hrs. post-dose): 0.079 ppm
Mean tissue residue (kidneys, 1X dose (0.5 mg/kg), 24 hrs. post-dose): 0.067 ppm
Mean tissue residue (kidneys, 1X dose (0.5 mg/kg), 48 hrs. post-dose): 0.039 ppm
Mean tissue residue (kidneys, 1X dose (0.5 mg/kg), 72 hrs. post-dose): 0.024 ppm
Elimination Rate Constant (Ke) (kidneys, 5X dose): -0.0262 h⁻¹
Half-Life (t1/2) (kidneys, 5X dose): 26.7 h
Mean tissue residue (kidneys, 5X dose (2.5 mg/kg), 4 hrs. post-dose): 0.477 ppm
Mean tissue residue (kidneys, 5X dose (2.5 mg/kg), 12 hrs. post-dose): 0.267 ppm
Mean tissue residue (kidneys, 5X dose (2.5 mg/kg), 24 hrs. post-dose): 0.210 ppm
Mean tissue residue (kidneys, 5X dose (2.5 mg/kg), 48 hrs. post-dose): 0.104 ppm
Mean tissue residue (kidneys, 5X dose (2.5 mg/kg), 72 hrs. post-dose, includes a sport, high value among three): 0.150 ppm
Mean tissue residue, mean of two values without the sport (kidneys, 5X dose, 72 hrs. post-dose): 0.073 ppm
Residue 72 hrs. post-dose (liver): 0.034 ppm
Mean tissue residue (liver, 1X dose (0.5 mg/kg), 4 hrs. post-dose): 0.284 ppm
Mean tissue residue (liver, 1X dose (0.5 mg/kg), 12 hrs. post-dose): 0.120 ppm
Mean tissue residue (liver, 1X dose (0.5 mg/kg), 24 hrs. post-dose): 0.114 ppm
Mean tissue residue (liver, 1X dose (0.5 mg/kg), 48 hrs. post-dose): 0.102 ppm
Mean tissue residue (liver, 1X dose (0.5 mg/kg), 72 hrs. post-dose): 0.034 ppm
Mean tissue residue (liver, 5X dose (2.5 mg/kg), 4 hrs. post-dose): 0.779 ppm
Mean tissue residue (liver, 5X dose (2.5 mg/kg), 12 hrs. post-dose): 0.500 ppm
Mean tissue residue (liver, 5X dose (2.5 mg/kg), 24 hrs. post-dose): 0.679 ppm
Mean tissue residue (liver, 5X dose (2.5 mg/kg), 48 hrs. post-dose): 0.275 ppm
Mean tissue residue (liver, 5X dose (2.5 mg/kg), 72 hrs. post-dose, includes a sport, high value among three): 0.686 ppm
Mean tissue residue, mean of two values without the sport (liver, 5X dose, 72 hrs. post-dose): 0.205 ppm
Elimination Rate Constant (Ke) (livers, 1X dose): -0.0247 h⁻¹
Half-Life (t1/2) (livers, 1X dose): 28.0 h
Elimination Rate Constant (Ke) (livers, 5X dose): -0.0193 h⁻¹
Half-Life (t1/2) (livers, 5X dose): 35.9 h
Residue 72 hrs. post-dose (skin/fat): 0.016 ppm
Residue 72 hrs. post-dose (thigh muscle): 0.012 ppm

From patent publication US4033721A, “Analysis of gentian violet residue in tissue” (priority 1976, dated 1977)
